The record followed here is ChEMBL document CHEMBL4152276, “Design, synthesis and biological evaluation of N-phenyl-(2,4-dihydroxypyrimidine-5-sulfonamido)benzoyl hydrazide derivatives as thymidylate synthase (TS) inhibitors and as potential antitumor drugs” (Eur J Med Chem, 2018).

Holding throughout (assay type): functional, cell-based
The test system of test [1] is A549. Kind of test: Antiproliferative activity against human A549 cells after 24 hrs by MTT assay. The settings on record: A549, 24 h.
Test [2] has as its system OVCAR-3. Kind of test: Antiproliferative activity against human OVCAR3 cells after 24 hrs by MTT assay. The note with it: OVCAR-3, 24 h.
In test [3] the test system is SGC-7901. Kind of test: Antiproliferative activity against human SGC7901 cells after 24 hrs by MTT assay. The settings on record: SGC-7901, 24 h.
Test [4] has as its system MDA-MB-231. The test is described as follows: Antiproliferative activity against human MDA-MB-231 cells after 24 hrs by MTT assay. The note with it: MDA-MB-231, 24 h.

Take `O=C(NNC(=O)c1ccccc1NS(=O)(=O)c1cnc(O)nc1O)c1ccccc1F`: the IC50 is 7.15 µM in test [1], 15.3 µM in test [2], greater than 20 µM in test [3] and greater than 20 µM in test [4].
`O=C(NNc1ccc(F)cc1)c1ccc(NS(=O)(=O)c2cnc(O)nc2O)cc1`: the IC50 in test [1], in test [2], in test [3] and in test [4] was greater than 20 µM in each case.
Take `O=C(NNC(=O)c1cccc(NS(=O)(=O)c2cnc(O)nc2O)c1)c1ccc(F)cc1`: the IC50 in test [1], in test [2], in test [3] and in test [4] was greater than 20 µM each time.
Turning to `CCCCOc1ccc(C(=O)NNC(=O)c2cccc(NS(=O)(=O)c3cnc(O)nc3O)c2)cc1`, the half-inhibitory concentration (IC50) in test [1] is 7.76 µM; in test [2] it was 9.2 µM; in test [3], 7.37 µM; in test [4], 17 µM.
For the molecule `O=C(NNc1ccccc1Cl)c1cccc(NS(=O)(=O)c2cnc(O)nc2O)c1`, the IC50 in test [1] was found to be 1.46 µM; in test [2] it was 3.35 µM; in test [3], 2.27 µM; in test [4] it was 2.09 µM.
Regarding `O=C(NNc1ccccc1Cl)c1ccccc1NS(=O)(=O)c1cnc(O)nc1O`, the IC50 is 5.48 µM in test [1], 14.1 µM in test [2], greater than 20 µM in test [3] and 18.9 µM in test [4].
`Cc1cccc(NNC(=O)c2ccc(NS(=O)(=O)c3cnc(O)nc3O)cc2)c1`: the IC50 in test [1], in test [2], in test [3] and in test [4] was greater than 20 µM each time.
`Cc1ccc(C(=O)NNC(=O)c2cccc(NS(=O)(=O)c3cnc(O)nc3O)c2)cc1`: the IC50 in test [1] was greater than 20 µM; in test [2], greater than 20 µM; in test [3] it was 10.1 µM; in test [4] it was greater than 20 µM.
For `Cc1ccc(C(=O)NNC(=O)c2ccccc2NS(=O)(=O)c2cnc(O)nc2O)cc1`, the IC50 in test [1] was greater than 20 µM; in test [2], 12.9 µM; in test [3], 15.5 µM; in test [4], greater than 20 µM.
Turning to `O=C(NNC(=O)c1ccccc1F)c1cccc(NS(=O)(=O)c2cnc(O)nc2O)c1`, the IC50 in test [1] is 10.8 µM; in test [2], 10.8 µM; in test [3], greater than 20 µM; in test [4] it was greater than 20 µM.
Take `O=C(NNC(=O)c1ccccc1Cl)c1cccc(NS(=O)(=O)c2cnc(O)nc2O)c1`: the IC50 was 3.74 µM in test [1], 7.3 µM in test [2], 6.07 µM in test [3] and 2.36 µM in test [4].
For the molecule `Cc1ccccc1NNC(=O)c1cccc(NS(=O)(=O)c2cnc(O)nc2O)c1`, the IC50 was 14.2 µM in test [1], greater than 20 µM in test [2], greater than 20 µM in test [3] and greater than 20 µM in test [4].
On to `O=C(NNC(=O)c1ccccc1NS(=O)(=O)c1cnc(O)nc1O)c1ccc(F)cc1`, for which the 50% inhibitory concentration (IC50) in test [1] was greater than 20 µM; in test [2] it was 15.1 µM; in test [3], greater than 20 µM; in test [4] it was greater than 20 µM.
`CCCCOc1ccc(C(=O)NNC(=O)c2ccc(NS(=O)(=O)c3cnc(O)nc3O)cc2)cc1`: the IC50 in test [1] is 9.01 µM; in test [2] it was 12.8 µM; in test [3], 14.7 µM; in test [4], 11.9 µM.
On the same counts, the results for `O=C(NNC(=O)c1ccc(NS(=O)(=O)c2cnc(O)nc2O)cc1)c1ccc(F)cc1` are greater than 20 µM, greater than 20 µM, greater than 20 µM and greater than 20 µM.
On to `O=C(NNc1cccc(Cl)c1)c1ccccc1NS(=O)(=O)c1cnc(O)nc1O`, for which the IC50 in test [1] is 5.29 µM; in test [2], 5.52 µM; in test [3] it was 10.8 µM; in test [4] it was 11.8 µM.
The matching figures for `O=C(NNc1ccccc1Cl)c1ccc(NS(=O)(=O)c2cnc(O)nc2O)cc1`: 3.34 µM, 7.23 µM, 3.63 µM and 4.01 µM.
